Laboratory results published in PubChem BioAssay (NCI).
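Five compound concentrations were applied to cells in 96-well plates for 48 hours; endpoints were derived by simple linear interpolation of the resulting dose-response curve. GI50 = concentration required for 50% inhibition of growth. At the TGI there is no net growth.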

Legend:
Assay in all cases: NCI tumour cell line growth inhibition, 48 h
[1] = tested on: DU-145 prostate
[2] = tested on: HCT-15 colon
[3] = tested on: RPMI-8226 leukemia
[4] = tested on: K-562 leukemia
[5] = tested on: NCI-H226 lung
[6] = tested on: OVCAR-8 ovarian
[7] = tested on: CAKI-1 renal
[8] = tested on: EKVX NSCLC
[9] = tested on: BT-549 breast
[10] = tested on: SF-539 CNS
[11] = tested on: MALME-3M melanoma
[12] = tested on: SW-620 colon
[13] = tested on: A549 NSCLC
[14] = tested on: UACC-257 melanoma
[15] = tested on: HCC-2998 colon
[16] = tested on: SF-268 CNS
[17] = tested on: SN12C renal
[18] = tested on: SNB-19 CNS
[19] = tested on: NCI/ADR-RES ovarian
[20] = tested on: UO-31 renal
[21] = tested on: NCI-H23 lung
[22] = tested on: UACC-62 melanoma
[23] = tested on: PC-3 prostate
[24] = tested on: T-47D breast
[25] = tested on: SK-MEL-2 melanoma
[26] = tested on: SNB-75 CNS
[27] = tested on: A498 renal
[28] = tested on: HS 578T breast
[29] = tested on: HT29 colon
[30] = tested on: RXF 393 renal
[31] = tested on: MCF7 breast
[32] = tested on: HOP-62 NSCLC
[33] = tested on: CCRF-CEM leukemia
[34] = tested on: SK-OV-3 ovarian
[35] = tested on: TK-10 renal
[36] = tested on: MDA-MB-468 breast
[37] = tested on: KM12 colon
[38] = tested on: SK-MEL-28 melanoma
[39] = tested on: 786-0 renal
[40] = tested on: COLO 205 colon
[41] = tested on: NCI-H522 lung
[42] = tested on: IGROV1 ovarian
[43] = tested on: HCT-116 colon
[44] = tested on: LOX IMVI melanoma
[45] = tested on: OVCAR-3 ovarian
[46] = tested on: SF-295 CNS
[47] = tested on: OVCAR-4 ovarian
[48] = tested on: MDA-MB-231 breast
[49] = tested on: MOLT-4 leukemia
[50] = tested on: U251 CNS
[51] = tested on: OVCAR-5 ovarian
[52] = tested on: HOP-92 NSCLC
[53] = tested on: SK-MEL-5 melanoma
[54] = tested on: ACHN renal
[55] = tested on: MDA-MB-435
[56] = tested on: M14 melanoma
[57] = tested on: SR leukemia
[58] = tested on: HL-60(TB) leukemia
[59] = tested on: NCI-H460 lung

CC(=O)Nc1ccc(-c2cn(-c3cccc(C(=O)Nc4ccc(F)c(C(F)(F)F)c4)c3)nn2)cn1
GI50 [1]: 27 µM | TGI [1]: 79.3 µM | GI50 [2]: 17.2 µM | TGI [2]: 33.4 µM | GI50 [3]: 24.3 µM | TGI [3]: 66.2 µM | GI50 [4]: 4.13 µM | TGI [4]: 24.6 µM | GI50 [5]: 18.4 µM | TGI [5]: 36.3 µM | GI50 [6]: 28 µM | TGI [6]: 89.8 µM | GI50 [7]: 17.3 µM | TGI [7]: 32.7 µM | GI50 [8]: 18.1 µM | TGI [8]: 34 µM | GI50 [9]: 13.2 µM | TGI [9]: 30.9 µM | GI50 [10]: 15.1 µM | TGI [10]: 28.5 µM | GI50 [11]: 9.6 µM | TGI [11]: 21.8 µM | GI50 [12]: 17.1 µM | TGI [12]: 33.8 µM | GI50 [13]: 25.2 µM | TGI [13]: 68.5 µM | GI50 [14]: 17.6 µM | TGI [14]: 38.6 µM | GI50 [15]: 16.9 µM | TGI [15]: 32.6 µM | GI50 [16]: 26.5 µM | TGI [16]: 63.4 µM | GI50 [17]: 16.1 µM | TGI [17]: 30.4 µM | GI50 [18]: 19.5 µM | TGI [18]: 34.9 µM | GI50 [19]: 27.5 µM | TGI [19]: 89.1 µM | GI50 [20]: 15.4 µM | TGI [20]: 29.6 µM | GI50 [21]: 14.8 µM | TGI [21]: 28.8 µM | GI50 [22]: 14.2 µM | TGI [22]: 27.6 µM | GI50 [23]: 16 µM | TGI [23]: 38.1 µM | GI50 [24]: 22.9 µM | TGI [24]: 66.4 µM | GI50 [25]: 16.6 µM | TGI [25]: 34.4 µM | GI50 [26]: 13.8 µM | TGI [26]: 35.7 µM | GI50 [27]: 26.6 µM | TGI [27]: 43.4 µM | GI50 [28]: 17.4 µM | TGI [28]: 66.7 µM | GI50 [29]: 16.3 µM | TGI [29]: 33.6 µM | GI50 [30]: 14.5 µM | TGI [30]: 31.6 µM | GI50 [31]: 16 µM | TGI [31]: 34.3 µM | GI50 [32]: 21.2 µM | TGI [32]: 44.6 µM | GI50 [33]: 22.2 µM | TGI [33]: 71.5 µM | GI50 [34]: 20.7 µM | TGI [34]: 45.4 µM | GI50 [35]: 23.7 µM | TGI [35]: 41.1 µM | GI50 [36]: 14.8 µM | TGI [36]: 29 µM | GI50 [37]: 6.64 µM | TGI [37]: 53.5 µM | GI50 [38]: 14.6 µM | TGI [38]: 28 µM | GI50 [39]: 2.6 µM | TGI [39]: 11.1 µM | GI50 [40]: 18.3 µM | TGI [40]: 41.3 µM | GI50 [41]: 17.7 µM | TGI [41]: 38.1 µM | GI50 [42]: 16.5 µM | TGI [42]: 30.9 µM | GI50 [43]: 1.47 µM | TGI [43]: 18.2 µM | GI50 [44]: 13.8 µM | TGI [44]: 26.7 µM | GI50 [45]: 21.2 µM | TGI [45]: 41.4 µM | GI50 [46]: 14.6 µM | TGI [46]: 28.2 µM | GI50 [47]: 20.3 µM | TGI [47]: 40.9 µM | GI50 [48]: 11.2 µM | TGI [48]: 24.1 µM | GI50 [49]: 20.2 µM | TGI [49]: 61.1 µM | GI50 [50]: 23.5 µM | TGI [50]: 57.7 µM | GI50 [51]: 17.7 µM | TGI [51]: 35 µM | GI50 [52]: 15.8 µM | TGI [52]: 35.1 µM | GI50 [53]: 17.2 µM | TGI [53]: 34 µM | GI50 [54]: 15.7 µM | TGI [54]: 30.1 µM | GI50 [55]: 16.8 µM | TGI [55]: 32.9 µM | GI50 [56]: 15 µM | TGI [56]: 41.3 µM | GI50 [57]: 31 µM | TGI [57]: > 100 µM | GI50 [58]: 6.57 µM | TGI [58]: > 100 µM | GI50 [59]: 16.8 µM | TGI [59]: 32.2 µM
